For experiment [1], the system named is Tetranychus cinnabarinus mite larvae. Briefly: Larvicidal activity test, dipping method on bean seedling leaves. Type of experiment: in vivo. Particulars: for mortality at 100 µg/mL / mortality at 200 µg/mL / mortality at 10 µg/mL / mortality at 1 µg/mL / mortality at 0.01 µg/mL / mortality at 0.05 µg/mL / mortality at 0.1 µg/mL: Tetranychus cinnabarinus, 96 h, checked after 4 days; for mortality at 100 µg/mL: read-out: mortality of mite larvae (%), 100 mg/L; for mortality at 200 µg/mL: read-out: mortality of mite larvae (%), 200 mg/L; for mortality at 10 µg/mL: read-out: mortality of mite larvae (%), 10 mg/L; for mortality at 1 µg/mL: read-out: mortality of mite larvae (%), 1 mg/L; for acaricidal activity compared with etoxazole: Tetranychus cinnabarinus eggs and larvae, etoxazole as reference; for mortality at 0.01 µg/mL: read-out: mortality of mite larvae (%), 0.01 mg/L; for mortality at 0.05 µg/mL: read-out: mortality of mite larvae (%), 0.05 mg/L; for mortality at 0.1 µg/mL: read-out: mortality of mite larvae (%), 0.1 mg/L. An excerpt: (§1) The assay examples are used to illustrate the acaricidal activity against Tetranychus cinnabarinus (mortality of mite larvae and mortality of mite eggs) of the compounds having the structure represented by formula (I), and the results are shown in tables 1 to 9, where mortality of mite larvae % =(number of dead mite larvae applied/total number of mite larvae applied)×100, and mortality of mite eggs %= (number of dead mite eggs applied/total number of mite eggs applied)×100.
Tetranychus cinnabarinus bred indoors on bean seedlings was used as a test subject by the dipping method. Move adult mites onto the newly grown complete bean seedling leaves with two leaves, cut off the bean seedlings, place the bean seedlings in a greenhouse with illumination at 25° C. for laying eggs for 24 hours, then remove adult mites and keep mite eggs. And continuously culture in the greenhouse for 5 days until mite eggs hatch into mite larvae (ensuring that the number of the mites on each tested leaf is not less than 60).
Completely immerse the bean seedling leaves containing the mite larvae into the sample solution to be detected with Tween at the prepared concentration for 5-6 seconds by using tweezers, slightly throw off residual liquid, put the bean seedling leaves back to the culture cup, continuously culture for 4 days and check the result. One of the plants was immersed in a solution containing no sample to be tested and the remaining additives were identical to the sample solution as a blank control. Each compound was replicated three times.

Experiment [2] relates to Tetranychus cinnabarinus mite eggs. Description: Activity against mite eggs, dipping method on bean seedling leaves. Type of experiment: in vivo. Conditions: for mortality at 1 µg/mL / mortality at 10 µg/mL / mortality at 100 µg/mL / mortality at 200 µg/mL / mortality at 0.01 µg/mL / mortality at 0.05 µg/mL / mortality at 0.1 µg/mL: Tetranychus cinnabarinus, 96 h, checked after 4 days; for mortality at 1 µg/mL: read-out: mortality of mite eggs (%), 1 mg/L; for mortality at 10 µg/mL: read-out: mortality of mite eggs (%), 10 mg/L; for mortality at 100 µg/mL: read-out: mortality of mite eggs (%), 100 mg/L; for mortality at 200 µg/mL: read-out: mortality of mite eggs (%), 200 mg/L; for mortality at 0.01 µg/mL: read-out: mortality of mite eggs (%), 0.01 mg/L; for mortality at 0.05 µg/mL: read-out: mortality of mite eggs (%), 0.05 mg/L; for mortality at 0.1 µg/mL: read-out: mortality of mite eggs (%), 0.1 mg/L.
From the text: as §1
Tetranychus cinnabarinus bred indoors on bean seedlings was used as a test subject by the dipping method. Move female adult mites onto the newly grown complete bean seedling leaves with two leaves, cut off the bean seedlings, place the bean seedlings in a greenhouse with illumination at 25° C. for laying eggs for 24 hours, then remove adult mites and keep mite eggs. After continuously culturing in the greenhouse for one day, completely soak the bean seedling leaves containing the acarid eggs into the prepared sample solution to be tested for 5-6 seconds by using tweezers, slightly throw off residual liquid, put the bean seedling leaves back to the culture cup, continuously culture for 4 days and then check the result. One of the plants was immersed in a solution containing no sample to be tested and the remaining additives were identical to the sample solution as a blank control. Each compound was replicated three times.

Experimental findings from patent US12588678B2, “Oxazoline compound, synthesis method therefor and application thereof” (NANKAI UNIVERSITY, priority 2019, dated 2026) are described below.

`Fc1cccc(F)c1C1=NC(c2ccc(CN3CCCC3)cc2)CO1` (stereo not drawn) [Compound R1-1]: in experiment [1], the mortality at 100 µg/mL is 50% and the mortality at 200 µg/mL came out at 70%. In addition, in experiment [2], the mortality at 1 µg/mL was determined as 30%, the mortality at 10 µg/mL came to 60%, the mortality at 100 µg/mL was 70% and the mortality at 200 µg/mL was found to be 95%.
In the case of `Fc1cccc(F)c1C1=NC(c2ccc(CN3CCCCCC3)cc2)CO1` (stereo not drawn) [Compound R1-2], in experiment [1], the mortality at 10 µg/mL was 35%, the mortality at 100 µg/mL amounted to 75% and the mortality at 200 µg/mL is 90%. Besides, in experiment [2], the mortality at 10 µg/mL is 55%, the mortality at 100 µg/mL was 80% and the mortality at 200 µg/mL turned out to be 95%.
In the case of `Fc1cccc(F)c1C1=NC(c2ccc(CN3CCCCCCC3)cc2)CO1` (stereo not drawn) [Compound R1-3], in experiment [1], the mortality at 1 µg/mL is 55%, the mortality at 10 µg/mL is 70%, the mortality at 100 µg/mL came to 95% and the mortality at 200 µg/mL was found to be 100%. In experiment [2], the mortality at 1 µg/mL stood at 55%, the mortality at 10 µg/mL amounted to 70%, the mortality at 100 µg/mL came out at 90% and the mortality at 200 µg/mL was found to be 100%.
Take `Fc1cccc(F)c1C1=NC(c2ccc(CN3CCOCC3)cc2)CO1` (stereo not drawn) [Compound R1-4]: in experiment [1], the mortality at 10 µg/mL was found to be 30%, the mortality at 100 µg/mL stood at 70% and the mortality at 200 µg/mL came to 90%. For the same compound, in experiment [2], the mortality at 10 µg/mL was 50%, the mortality at 100 µg/mL turned out to be 70% and the mortality at 200 µg/mL was determined as 90%.
On to `Fc1cccc(F)c1C1=NC(c2ccc(Cn3cccc3)cc2)CO1` (stereo not drawn) [Compound R1-5], for which, in experiment [1], the mortality at 10 µg/mL turned out to be 40%, the mortality at 100 µg/mL was 90% and the mortality at 200 µg/mL worked out at 100%. In experiment [2], the mortality at 10 µg/mL was 45%, the mortality at 100 µg/mL is 100% and the mortality at 200 µg/mL was found to be 100%.
Take `Fc1cccc(F)c1C1=NC(c2ccc(CN3CC=CC3)cc2)CO1` (stereo not drawn) [Compound R1-6]: in experiment [1], the mortality at 1 µg/mL amounted to 50%, the mortality at 10 µg/mL was 70%, the mortality at 100 µg/mL was found to be 100% and the mortality at 200 µg/mL was 100%. Moreover, in experiment [2], the mortality at 1 µg/mL worked out at 50%, the mortality at 10 µg/mL turned out to be 70%, the mortality at 100 µg/mL is 100% and the mortality at 200 µg/mL amounted to 100%.
Take `CC(=O)N1CCN(Cc2ccc(C3COC(c4c(F)cccc4F)=N3)cc2)C1=O` (stereo not drawn) [Compound R1-8]: in experiment [1], the mortality at 1 µg/mL turned out to be 35%, the mortality at 10 µg/mL is 65%, the mortality at 100 µg/mL was determined as 95% and the mortality at 200 µg/mL amounted to 100%. Also, in experiment [2], the mortality at 10 µg/mL worked out at 40%, the mortality at 100 µg/mL was 95% and the mortality at 200 µg/mL stood at 100%.
`O=C1CCC(=O)N1Cc1ccc(C2COC(c3c(F)cccc3F)=N2)cc1` (stereo not drawn) [Compound R1-9]: in experiment [1], the mortality at 10 µg/mL is 35%, the mortality at 100 µg/mL was 80% and the mortality at 200 µg/mL came out at 85%. Also, in experiment [2], the mortality at 10 µg/mL came to 50%, the mortality at 100 µg/mL turned out to be 70% and the mortality at 200 µg/mL was 95%.
As to `O=C1c2ccccc2C(=O)N1Cc1ccc(C2COC(c3c(F)cccc3F)=N2)cc1` (stereo not drawn) [Compound R1-10], in experiment [1], the “acaricidal activity compared with etoxazole” value is given as “higher acaricidal activity than etoxazole”, the mortality at 0.01 µg/mL stood at 40%, the mortality at 0.05 µg/mL amounted to 55% and the mortality at 0.1 µg/mL is 70%. Besides, in experiment [1], the mortality at 1 µg/mL was 80%, the mortality at 10 µg/mL was found to be 95%, the mortality at 100 µg/mL stood at 100% and the mortality at 200 µg/mL came out at 100%. Moreover, in experiment [2], the mortality at 0.01 µg/mL is 40%, the mortality at 0.05 µg/mL was found to be 65%, the mortality at 0.1 µg/mL turned out to be 75% and the mortality at 1 µg/mL amounted to 85%. Further, in experiment [2], the mortality at 10 µg/mL amounted to 90%, the mortality at 100 µg/mL worked out at 100% and the mortality at 200 µg/mL worked out at 100%. In addition, the “activity on mite eggs, times that of etoxazole” value in experiment [2] (relative to etoxazole) worked out at 10 times.
In the case of `Fc1cccc(F)c1C1=NC(c2ccc(Cn3cccn3)cc2)CO1` (stereo not drawn) [Compound R1-12], in experiment [1], the mortality at 10 µg/mL is 40%, the mortality at 100 µg/mL worked out at 70% and the mortality at 200 µg/mL is 100%. In experiment [2], the mortality at 10 µg/mL was determined as 50%, the mortality at 100 µg/mL came out at 80% and the mortality at 200 µg/mL stood at 90%.
As for `Fc1cccc(F)c1C1=NC(c2ccc(CN3CCc4ccccc4C3)cc2)CO1` (stereo not drawn) [Compound R1-13], in experiment [1], the mortality at 1 µg/mL was determined as 40%, the mortality at 10 µg/mL is 70%, the mortality at 100 µg/mL amounted to 88% and the mortality at 200 µg/mL is 100%. Further, in experiment [2], the mortality at 1 µg/mL is 60%, the mortality at 10 µg/mL was 90%, the mortality at 100 µg/mL stood at 100% and the mortality at 200 µg/mL was determined as 100%.
In the case of `Fc1cccc(F)c1C1=NC(c2ccc(CN3CCc4ccccc43)cc2)CO1` (stereo not drawn) [Compound R1-14], in experiment [1], the mortality at 1 µg/mL was found to be 30%, the mortality at 10 µg/mL turned out to be 70%, the mortality at 100 µg/mL stood at 95% and the mortality at 200 µg/mL turned out to be 100%. Also, in experiment [2], the mortality at 1 µg/mL amounted to 40%, the mortality at 10 µg/mL is 70%, the mortality at 100 µg/mL was 95% and the mortality at 200 µg/mL was found to be 100%.
For the compound `Fc1cccc(F)c1C1=NC(c2ccc(Cn3ccc4ccccc43)cc2)CO1` (stereo not drawn) [Compound R1-15], in experiment [1], the “acaricidal activity compared with etoxazole” value is listed as “higher acaricidal activity than etoxazole”, the mortality at 0.01 µg/mL was 35%, the mortality at 0.05 µg/mL worked out at 50% and the mortality at 0.1 µg/mL came out at 65%. For the same compound, in experiment [1], the mortality at 1 µg/mL came to 80%, the mortality at 10 µg/mL came out at 90%, the mortality at 100 µg/mL was determined as 100% and the mortality at 200 µg/mL came to 100%. In addition, in experiment [2], the mortality at 0.01 µg/mL came to 35%, the mortality at 0.05 µg/mL is 65%, the mortality at 0.1 µg/mL came to 80% and the mortality at 1 µg/mL came to 90%. Moreover, in experiment [2], the mortality at 10 µg/mL is 100%, the mortality at 100 µg/mL was found to be 100% and the mortality at 200 µg/mL was determined as 100%.
On to `Cc1ccc2c(ccn2Cc2ccc(C3COC(c4c(F)cccc4F)=N3)cc2)c1` (stereo not drawn) [Compound R1-16], for which, in experiment [1], the mortality at 1 µg/mL turned out to be 50%, the mortality at 10 µg/mL stood at 65%, the mortality at 100 µg/mL stood at 100% and the mortality at 200 µg/mL was determined as 100%. Moreover, in experiment [2], the mortality at 1 µg/mL amounted to 50%, the mortality at 10 µg/mL stood at 70%, the mortality at 100 µg/mL stood at 100% and the mortality at 200 µg/mL was 100%.
Consider `Cc1ccc2ccn(Cc3ccc(C4COC(c5c(F)cccc5F)=N4)cc3)c2c1` (stereo not drawn) [Compound R1-17], for which, in experiment [1], the mortality at 1 µg/mL was found to be 20%, the mortality at 10 µg/mL came out at 40%, the mortality at 100 µg/mL came out at 100% and the mortality at 200 µg/mL was 100%. Moreover, in experiment [2], the mortality at 1 µg/mL is 40%, the mortality at 10 µg/mL turned out to be 65%, the mortality at 100 µg/mL was 100% and the mortality at 200 µg/mL came out at 100%.
With `Cc1cn(Cc2ccc(C3COC(c4ccccc4F)=N3)cc2)c2ccccc12` (stereo not drawn) [Compound R1-19], the “acaricidal activity compared with etoxazole” value in experiment [1] is listed as “higher acaricidal activity than etoxazole”.
